Experimental data taken from patent US20030228308A1, “Isolated peptides which bind to HLA-Cw6 molecules and uses thereof” (priority 2002, published 2003).

Assays:
autologous EBV-B cells = test: 51Cr release lysis of peptide-incubated autologous EBV-B cells by CTL clone; assay type: cell-based, human; settings: effector:target 10:1, chromium release after 4 hours; for lysis (chromium release): 1 μg/ml of peptide, 15 minutes
Protocol: A set of 16 amino acid long, MAGE-1 derived peptides were prepared, using standard solid phase methodologies.
The peptides, which overlapped by 12 residues and covered the entire MAGE-1 amino acid sequence, were incubated with autologous EBV-B cells that had been labelled with Na(^51Cr)O4. The cells were incubated for 15 minutes in the presence of 1 μg/ml of peptide, and then tested for lysis with the T cells, at effector:target ratios of 10:1. Chromium release was measured after 4 hours.
It corresponds to amino acids 230-238 of MAGE-1. The shorter peptide was tested, in the same manner as the longer ones.

EBV-B cells = test: TNF production by CTL co-cultured with fixed EBV-B cells pulsed with the shorter peptide; assay type: cell-based, human; settings: PFA-fixed EBV-B cells pulsed with peptide; overnight co-culture with 5,000 CTLs; WEHI 164 clone 13 readout
Protocol: A MAGE-1 expressing tumor cell line, MZ2-MEL.43 was obtained from a patient who tested positive for HLA-Cw6 expression. These cells either were, or were not contacted with gamma interferon (100 U/ml), 48 hours before lysis studies. EBV-B cells were also used. These cells naturally produce TNF. They were fixed with PFA (1% in PBS) for 10 minutes at room temperature, washed twice with Hank's medium, and either pulsed or not with the shorter peptide.
Stimulator cells (2×10^4) were distributed in flat bottom microwells, and cocultured with 5,000 CTLs, in a total volume of 150 μl of complete IMDM, supplemented with 25 U/ml of IL-2.
TNF production was measured, following overnight co-culture, by testing for toxicity of supernatant on TNF sensitive, WEHI 164 clone 13 cells.

Row | Sequence | lysis (chromium release) (autologous EBV-B cells) | EC50 (autologous EBV-B cells; read-out: peptide concentration giving half maximal lysis) | TNF production by CTL (EBV-B cells)
1 | DGREHSAYGEPRKLLT (H. sapiens) [SEQ ID NO:1, amino acids 225-240 of MAGE-1] | positive |  | 
2 | HSAYGEPRKLLTQDLV (H. sapiens) [SEQ ID NO:2, amino acids 229-244 of MAGE-1] | positive |  | 
3 | SAYGEPRKL |  | ~6 nM | did stimulate TNF production
